Columns and labels:
ICR mice = test: Intraperitoneal administration of partial peptides of nesfatin-1 / nesfatin-1M30 / NUCB1-M30 to ICR mice, food intake; assay type: in vivo, mouse; conditions: 0-3 hours
Method: Each peptide of nesfatin-1N23, nesfatin-1M30 and nesfatin-1C29 used was a synthetic peptide of which production was referred to Biologica Co., Ltd. and was purified by HPLC to a purity of 95% or higher. Each peptide was prepared in physiological saline so as to contain 50 nmol per 200 μl, which was used as the sample, and as the control sample physiological saline (Vehicle) alone was used. Using a tuberculin syringe equipped with a 25G needle, 200 μl each of the samples was administered once into the abdominal cavity of each mouse (5 animals per group), and the time of administration was immediately before the start (6 p.m.) of the dark period. Mice used were male ICR mice (Nippon SLC) and the housing condition was similar to those in Working Example 18.
Each mouse that received administration was placed in an individual cage, and during 0-3 hours after the administration the weight decreased of the pellet food was measured to determine the amount of food intake. For testing of significant difference, analysis of variance was used.
Each peptide was prepared in physiological saline so as to contain 10 pmol per 100 μl, which was used as the sample for administration, and as the control sample physiological saline (Vehicle) alone was used. The physiological saline as the control and the peptide samples prepared were intraperitoneally administered at 100 μl per mouse (6 animals per group). Mice used were male ICR mice (Nippon SLC) and the housing condition and the experimental condition were similar to those in Working Example 18.
Each of the prepared human nesfatin-1M30 and mouse NUCB1-M30 was prepared in physiological saline so as to contain 10 pmol per 100 μl, which was used as the sample for administration.
The physiological saline as the control and the peptide sample prepared were intraperitoneally administered at 100 μl per mouse (n=6 per group). Mice used were male ICR mice (Nippon SLC) and the housing condition and the experimental condition were similar to those in Working Example 18.

Wistar rats = test: Administration of nesfatin-1, nesfatin-2, nesfatin-3, nesfatin-2/3 into the third ventricle, amount of food intake; assay type: in vivo, rat; conditions: for amount of food intake: 25 pmol into the third ventricle before dark period, 0-1 hr and 1-3 hr, vs control
Method: Samples used for intracerebral administration were PBS alone (vehicle group), or nesfatin-1, nesfatin-2, nesfatin-3 or nesfatin-2/3 prepared in Working Example 10 each dissolved in PBS, and 25 pmol was administered per individual into the third ventricle immediately before the dark period. Rats used were Wistar rats (purchased from Nippon SLC) and were housed as in Working Example 6, and among 8-9 week-old male Wistar rats, those individuals weighing 200-250 g were selected and used (N=5). The technique of intraventricular administration and the measurement of the amount of food intake in rats were carried out in a method similar to those in Working Example 6. In the measurement of the amount of food intake, the reduced amount of food at 1 hour after administration (0-1 hr) and 2 hours after administration (1-3 hrs) was determined as food intake.
In the same condition above, 1, 5 or 25 pmol of nesfatin-1 as a sample was administered per rat individual into the third ventricle immediately before the dark period. In this experiment, the amount of food intake was determined at 1 hour after administration (0-1 hr).
The experimental condition was similar to that in Working Example 12, and 5 pmol of nesfatin-1 was administered into the third ventricle of the rat brain immediately before the start of the dark period, the amount decreased of the food (the amount of food intake) during 1 hour immediately after administration (0-1 hr), during 2 hours from 1 hour after the administration (1-3 hr), during 3 hours from 3 hours after the administration (3-6 hr), and during 6 hours from 6 hours after the administration (6-12 hr) was measured as the amount of food intake. As the control group, the amount of food intake by individuals that received physiological saline alone was measured.
The experimental condition was similar to that in Working Example 12, and for a group that received 5 pmol of nesfatin-1 alone into the third ventricle of the rat brain immediately before the start of the dark period and a group that received 5 pmol of nesfatin-1 and 8 μg of anti-nesfatin-1 antibody (nesfatin-1 IgG), the amount of food intake for 1 hour after administration was measured and compared to that for the control group (physiological saline alone was administered). Also, for a group that received only leptin (Rat leptin: R & D Systems, 598-LP-01M) (1 μg) which is known to have an activity of suppressing food intake by intraventricular administration and a group that received leptin and anti-nesfatin-1 antibody, its effect on food intake was also studied.

[1] = 10 pmol per 100 μl ip, partial peptides of nesfatin-1M30, vs saline
[2] = 10 pmol per 100 μl ip, Working Example 23, vs Vehicle
[3] = 50 nmol per 200 μl ip, vs Vehicle

Molecule: N-LysGlnValIleGluValLeuGluThrAsp-C (KQVIEVLETD; listed as Mus musculus) [nesfatin-1M10M]
- amount of food intake (ICR mice; [1]): significant effect of suppressing food intake

Molecule: N-ValLeuGluThrAspProHisPheArgGluLysLeuGlnLys-C (VLETDPHFREKLQK; listed as Mus musculus) [nesfatin-1M14]
- amount of food intake (ICR mice; [1]): significant effect of suppressing food intake

Molecule: human nesfatin-1M30: human nesfatin-1M30 (SEQ ID NO: 39), chemical synthesis (PDTGLYYDEYLKQVIDVLETDKHFREKLQK; listed as Homo sapiens)
- amount of food intake (ICR mice; [2]): significant effect of suppressing food intake

Molecule: mouse NUCB1-M30: site of mouse NUCB1 corresponding to nesfatin-1M30 (SEQ ID NO: 103) (PDTGLYYHRYLQEVINVLETDGHFREKLQA; listed as Mus musculus)
- amount of food intake (ICR mice; [2]): significant effect of suppressing food intake

Molecule: nesfatin-1C29: amino acid numbers 54 to 82 of mouse nesfatin-1 (SEQ ID NO: 43) (ADIEEIRSGRLSQELDLVSHKVRTRLDEL; listed as Mus musculus)
- amount of food intake (ICR mice; [3]): no significant decrease or enhancement in the amount of food intake

Molecule: nesfatin-1M16: 16-amino acid partial peptide of mouse nesfatin-1M30 (SEQ ID NO: 71) (PDTGLYYDEYLKQVIE; listed as Mus musculus)
- amount of food intake (ICR mice; [1]): significant effect of suppressing food intake

Molecule: nesfatin-1M30: 30-amino acid partial peptide of mouse nesfatin-1 (SEQ ID NO: 41) (PDTGLYYDEYLKQVIEVLETDPHFREKLQK; listed as Mus musculus)
- amount of food intake (ICR mice; [2]): significant effect of suppressing food intake
- amount of food intake (ICR mice; [3]): significant decrease

Molecule: nesfatin-1N23: amino acid numbers 1 to 23 of mouse nesfatin-1 (SEQ ID NO: 42) (VPIDVDKTKVHNTEPVENARIEP; listed as Mus musculus)
- amount of food intake (ICR mice; [3]): no significant decrease or enhancement in the amount of food intake

B1: nesfatin-3: 231 residues, amino acid Nos. 190 to 420 of nesfatin (SEQ ID NO: 17), cell-free protein synthesis, Met added (protein, listed as Rattus norvegicus)
chain: EYLKTLSEEKRKEEEAKFAEMKRKHEDHPKVNHPGSKDQLKEVWEETDGLDPNDFDPKTFFKLHDVNNDGFLDEQELEALFTKELDKVYNPQNAEDDMIEMEEERLRMREHVMNEIDNNKDRLVTLEEFLRATEKKEFLEPDSWETLDQQQLFTEEELKEYESIIAIQESELKKKADELQKQKEELQRQHDHLEAQKQEYQQAVQQLEQKKFQQGIAPSGPAGELKFEPHT
modifications: N-terminal Met added
- amount of food intake (Wistar rats): did not exhibit any significant changes in the amount of food intake

B2: leptin: Rat leptin: R & D Systems, 598-LP-01M; known to suppress food intake by intraventricular administration (protein)
chain: VPIHKVQDDTKTLIKTIVTRINDISHTQSVSARQRVTGLDFIPGLHPILSLSKMDQTLAVYQQILTSLPSQNVLQIAHDLENLRDLLHLLAFSKSCSLPQTRGLQKPESLDGVLEASLYSTEVVALSRLQGSLQDILQQLDLSPEC
- amount of food intake for 1 hour after administration (Wistar rats; given alone into the third ventricle (nesfatin-1 5 pmol; leptin 1 μg), vs saline control): decreased

B3: nesfatin-2: 79-residue peptide, amino acid Nos. 109 to 187 of nesfatin (SEQ ID NO: 16) (peptide, listed as Rattus norvegicus)
chain: QEVGRLRMLIKAKLDALQDTGMNHHLLLKQFEHLNHQNPDTFESKDLDMLIKAATADLEQYDRTRHEEFKKYEMMKEHE
- amount of food intake (Wistar rats): did not exhibit any significant changes in the amount of food intake

B4: nesfatin-2/3: portion of the sequence consisting of nesfatin-2 and nesfatin-3 (SEQ ID NO: 47), cell-free protein synthesis (protein, listed as Rattus norvegicus)
chain: QEVGRLRMLIKAKLDALQDTGMNHHLLLKQFEHLNHQNPDTFESKDLDMLIKAATADLEQYDRTRHEEFKKYEMMKEHERREYLKTLSEEKRKEEEAKFAEMKRKHEDHPKVNHPGSKDQLKEVWEETDGLDPNDFDPKTFFKLHDVNNDGFLDEQELEALFTKELDKVYNPQNAEDDMIEMEEERLRMREHVMNEIDNNKDRLVTLEEFLRATEKKEFLEPDSWETLDQQQLFTEEELKEYESIIAIQESELKKKADELQKQKEELQRQHDHLEAQKQEYQQAVQQLEQKKFQQGIAPSGPAGELKFEPHT
- amount of food intake (Wistar rats): did not exhibit any significant changes in the amount of food intake
